Measured values taken from patent US20260184700A1, “PDK1 REGULATORY COMPOUND AND COMPOSITION CONTAINING THE SAME” (PROVIBIO CO., LTD., priority 2024, published 2026).

Experiments:
[1] = test system: T cells isolated from mouse spleen; test: T cell proliferation inhibition, CFSE flow cytometry, CD3/CD28 activation; type: cell-based; settings: CD3/CD28 activated, 3 days
Procedure, shortened: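 Splenic T cells from 7-week-old C57BL/6 mice were MACS-isolated, CFSE-labelled, seeded at 2×10^5 cells/well and activated with anti-CD3/anti-CD28 (0.5 μg/mL each). Compound at 10 nM–50 μM (six levels, triplicate) was present for 3 days at 37 °C before flow cytometric readout of proliferation inhibition rate.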

[2] = test system: HCT-116 colon cancer cell lines; test: Invasion Assay using Matrigel, HCT-116; type: cell-based, human; settings: HCT-116, Matrigel invasion, 24 hours treatment
Description: To evaluate the metastasis inhibitory efficacy of the compounds of the present invention on HCT-116 colon cancer cell lines, an Invasion Assay using Matrigel was performed to assess the cells' invasion ability.
First, Matrigel was thawed on ice in RPMI-1640 medium without FBS, then diluted with DMEM at a ratio of 1:20.
The diluted Matrigel mixture was applied to the upper chamber at 100 μl per well, and 750 μl of RPMI-1640 without FBS was added to the lower chamber.
The plates were then incubated at 37° C. for 1 hour to allow the Matrigel to solidify.
After coating, the Matrigel mixture in the upper chamber was removed using a pipette, and the chamber was washed with RPMI without FBS.
Human-derived colorectal cancer cell line HCT-116, obtained from the Korean Cell Bank, was cultured in RPMI-1640 medium containing 10% FBS.
Following stabilization, the cells were harvested using Trypsin-EDTA treatment, centrifuged at 1,200 rpm for 3 minutes, the supernatant was removed, and the cells were resuspended in the same medium, the medium in the lower chamber was replaced with 750 μl of RPMI-1640 supplemented with 10% FBS, and the cells were seeded into the upper chamber at a density of 5×10^4 cells/well.
The cells were cultured for 24 hours after attachment, and then the compounds according to the present invention (G078, G085, G086, G088, G089, PBK-2024-010, PBK-2025-010, PBK-2025-013, PBK-2025-016) and the control substance DMSO were diluted and added to the upper chamber after removing the medium.
Additionally, the medium in the lower chamber was replaced with fresh RPMI-1640 containing FBS, and the culture was continued.
After an additional 24 hours, the medium was removed, and 1 ml of methanol was added for 10 minutes to fix the cells.
Subsequently, 1 ml of Hematoxylin was added and reacted for 5 minutes, followed by 1 ml of Eosin, which was reacted for 30 seconds. The sample was then washed with distilled water (DW).
After staining was complete, any remaining cells in the upper chamber were removed. Finally, the infiltrated cells were observed under a microscope, photographed, and the degree of infiltration was analyzed.

## CC1(C)CN(CCCCCCCCCCCCC(=O)Nc2nc(N)c3[nH]cnc3n2)CCO1 [Compound 11, 12-[4-(2,2-dimethylmorpholin-4-yl)]dodecyl-N-(6-aminopurine-2-yl)carboxamide]
[1]; compound 100 nM
  Proliferation inhibition rate (%): 100.00%
[1]; compound 1 μM
  Proliferation inhibition rate (%): 100.00%
[1]; compound 10 μM
  Proliferation inhibition rate (%): 100.00%
[1]; compound 30 μM
  Proliferation inhibition rate (%): 100.00%
[1]; compound 50 μM
  Proliferation inhibition rate (%): 100.00%
[2]
  number of infiltrated cells: reduction in the number of infiltrated cells
